Assay results: paper PMC6222672, “Pharmacokinetic and Metabolism Studies of 12-Riboside-Pseudoginsengenin DQ by UPLC-MS/MS and UPLC-QTOF-MS^E” (Molecules : A Journal of Synthetic Chemistry and Natural …, 2018)
Where two headings read alike, the source gives them in different places.

Type: in vitro ADME
Conditions: rat
Method: RPDQ and 20R-panaxadiol stock methanol solutions (1.00 mg/mL) were all prepared with the reference compounds, respectively. Firstly, blank rat plasma was prepared. The blood samples were collected immediately from the abdominal aorta and incubated at 37 °C for 30 min. The plasma was separated by centrifugation at 4000 rpm for 15 min, and was frozen at −20 °C until analysis. By spiking the dilute solutions with blank rat plasma, calibration curves were plotted to produce the points equivalent to 5, 10, 25, 50, 100, 300, 500, and 1000 ng/mL for RPDQ. […] All the QC and calibration standards samples were prepared freshly before analysis. The specificity, linearity, LLOQ, precision and accuracy, extraction recovery, matrix effect, diluted reliability, and stability of the method were validated by following a non-clinical drug pharmacokinetic study technical guideline (China Food And Drug Administration 2014) and the Bioanalytical Method Validation Guideline (Chinese Pharmacopoeia 2015, Vol. 4). Specificity was assessed by comparing blank plasma samples, plasma was spiked with RPDQ and 20R-panaxadiol, and plasma samples were collected after administration. Linearity was analyzed through weighted regression (1/x^2) of peak area ratios (y) of RPDQ to 20R-panaxadiol versus nominal concentration (x) in plasma. […] The intra- and inter-day precision and accuracy were evaluated with the analysis of six replicate QC samples on three consecutive days, respectively. The extraction recovery and matrix effect at three QC concentrations were assayed. By comparing peak areas of RPDQ and 20R-panaxadiol in extracted QC samples with those in post-extracted blank plasma samples, the recoveries were calculated. Moreover, by comparing the peak area of samples spiked after extraction with that of the neat solution’s equivalent concentration, the matrix effect was then evaluated. Stability was evaluated by analyzing replicate QC samples, which were stored at −20 °C for two weeks at room temperature for 4 h, and experienced three freeze/thaw cycles (from −20 °C to room temperature) on consecutive days. The stabilities of RPDQ in stock solutions at 15 °C and stored in plastic autosampler vials for 16 h at 10 °C were also assessed. Five-fold higher concentrations of QC were achieved by adding moderate RPDQ to blank plasma. The samples were then diluted and analyzed with undiluted calibration standards. The accuracy and precision were within acceptable limits (± 15%).

CC(C)(O)[C@@H]1CC[C@@](C)([C@H]2CC[C@]3(C)[C@@H]2[C@H](O[C@@H]2O[C@H](CO)[C@@H](O)[C@H]2O)C[C@@H]2[C@@]4(C)CC[C@H](O)C(C)(C)[C@@H]4CC[C@]23C)O1 [RPDQ, 20S, 24S-12-O-β-D-ribofuranosyl-dammar-20, 24-epoxy-3β, 12β, 25-triol]
Mean concentration (15 ng/mL): 14.96 ± 0.58 ng/mL | Mean concentration (200 ng/mL): 188.7 ± 16.57 ng/mL | Mean concentration (800 ng/mL): 785.21 ± 19.19 ng/mL | Accuracy (3 freeze-thaw cycles, 800 ng/mL): −1.85% | Accuracy (3 freeze/thaw cycles, 15 ng/mL): −0.03% | Accuracy (3 freeze/thaw cycles, 200 ng/mL): −5.65% | Accuracy (4 h, 15 ng/mL): −1.00% | Mean concentration (4 h, 15 ng/mL): 14.85 ± 0.72 ng/mL | Accuracy (4 h, 200 ng/mL): −5.94% | Mean concentration (4 h, 200 ng/mL): 188.12 ± 14.00 ng/mL | Accuracy (4 h, 800 ng/mL): −3.25% | Mean concentration (4 h, 800 ng/mL): 773.99 ± 26.01 ng/mL | Accuracy (16 h, 15 ng/mL): 2.2% | Mean concentration (16 h, 15 ng/mL): 15.33 ± 1.61 ng/mL | Accuracy (16 h, 200 ng/mL): −6.52% | Mean concentration (16 h, 200 ng/mL): 186.96 ± 13.41 ng/mL | Accuracy (16 h, 800 ng/mL): 2.03% | Mean concentration (16 h, 800 ng/mL): 816.23 ± 15.82 ng/mL | Accuracy (14 d, 15 ng/mL): 2.74% | Mean concentration (14 d, 15 ng/mL): 15.41 ± 1.47 ng/mL | Accuracy (14 d, 200 ng/mL): −10.47% | Mean concentration (14 d, 200 ng/mL): 179.07 ± 14.73 ng/mL | Accuracy (14 d, 800 ng/mL): −1.71% | Mean concentration (14 d, 800 ng/mL): 786.32 ± 19.88 ng/mL
